Data set [1] in a line: Tissue, plasma, rectal and GI content pharmacokinetics of tacrolimus, oral vs intra-cecal ingestible device (Example 10). Particulars: in vivo. Set-up: species or system Yorkshire-Cross farm swine. How it is done:
The primary objective of this study was to compare the tissue, plasma, rectal sample, and GI content pharmacokinetics of tacrolimus through oral versus intra-cecal ingestible device delivery in normal Yorkshire-Cross farm swine.
(§1) No further randomization procedure was employed.
Animals in Group 1 received an ingestible device containing 0.8 mL of vehicle solution (80% alcohol, 20% HCO-60). Animals in Group 2 received orally […] liquid formulation of tacrolimus at 4 mg/0.8 mL per animal (Prograf: 5 mg/mL). Animals in Group 3 received intra-cecally an ingestible device containing tacrolimus at 1 mg in 0.8 mL per ingestible device. Animals in Group 4 received intra-cecally an ingestible device containing tacrolimus at 2 mg in 0.8 mL per ingestible device. Animals in Group 5 received intra-cecally an ingestible device containing tacrolimus at 4 mg in 0.8 mL per ingestible device. To control for potential confounding effects of the surgery, all groups fast on Day −11 at least 24 hr before being subjected to anesthesia followed by surgical placements of a cecal port by a veterinary surgeon at Day −10. All animals were fasted for at least 12 hr prior to dosing on Day 1. Animals were dosed via either intra-cecal dosing (IC) or oral dosing (PO) at Day 1 (between 6-8 p.m.). All animals resumed feeding at approximately 4 hours after dose ([…]. after dosing).
Animals in Group 1 (Vehicle Control) were administered a single intra-cecal ingestible device containing 0.8 mL Vehicle solution (80% alcohol, 20% castor oil (HCO-60) on Day 1. On Day −10 the animals were anesthetized, and a veterinary surgeon surgically placed an intra-cecal port in each animal. On Day 1, each animal was placed into a sling then a single intra-cecal ingestible device containing 0.8 mL vehicle solution (80% alcohol, 20% castor oil (HCO-60)) is introduced by the veterinary surgeon into the cecum via the cecal port in each animal. Following ingestible device placement, the animals were removed from the slings and placed back into their pens with water. All animals resumed feeding at approximately 4 hours after dose. […] A total of 60 samples were collected.
Approximately 200˜400 mg of rectal content were collected, if available, with a fecal swab (Copan Diagnostics Nylon Flocked Dry Swabs, 502CS01). The fecal swab was pre-weighed and weighed after collection in the collection tube (Sterile Tube and Cap No Media, PFPM913S), and the sample weight was recorded. The fecal swab was broken via the breakpoint, and was stored in the collection tube, and immediately frozen at −70° C. […] Immediately following euthanasia, tissue was collected.
For tissue necropsy, small intestine fluid and cecal fluid were collected separately from all the animals into two separate square plastic bottles, and stored at −20° C. The length and diameter of the cecum and the colon was measured from one animal in each group and recorded for reference. Tissues were collected for pharmacokinetic analyses and include mesenteric lymph nodes, a Peyer's Patch, and five gastrointestinal sections, including cecum, proximal colon, transverse colon, distal colon, and rectum. All samples were weighed, and the tissue sample weights were recorded. […] Around 3 grams of the total punched sample were collected into a pre-weighed 15-mL conical tube, and the tissue weight was recorded. […]

The nature of data set [2]: Pharmacokinetic study of oral vs intra-cecal tacrolimus: blood, GI tissue, luminal and rectal content concentrations (Example 13). Set-up: species or system Yorkshire-Cross farm swine. The settings on record: in vivo, 0.09 mg/kg.
Description: as §1

[3] abbreviates: female, Yorkshire-Cross, pig, po.
Setting [4] is: female, Yorkshire-Cross, pig, po, 12 h.

Molecules are shown by their SMILES.

The values that follow come from patent US20200323772A1, “TREATMENT OF INFLAMMATORY DISEASE USING INGESTIBLE DEVICE TO RELEASE IMMUNE MODULATOR” (Progenity, Inc., priority 2017, published 2020).

The term Kp denotes tissue or fluid exposure divided by exposure in the circulation.

Consider `C=CC[C@@H]1/C=C(\C)C[C@H](C)C[C@H](OC)[C@H]2O[C@@](O)(C(=O)C(=O)N3CCCC[C@H]3C(=O)O[C@H](/C(C)=C/[C@@H]3CC[C@@H](O)[C@H](OC)C3)[C@H](C)[C@@H](O)CC1=O)[C@H](C)C[C@@H]2OC` [tacrolimus], for which the systemic concentrations entry in data set [1] (setting [3]) is recorded as “equivalent to low dose IC group (0.02 mg/kg)”. In addition, in data set [1], the “luminal content (spiral, transverse, and distal colon) concentrations” value is given as “Significantly higher”; the “mean concentration in the cecum tissue and the proximate colon tissue” value is “higher”; the “tissue (spiral and transverse colon) concentrations” value is “Significantly higher”. Also, in data set [1] (po), the level in tissue entry was “No measurable level”. The same molecule came in with a Kp at 12 h in data set [2] (setting [3]) of 0. Further, in data set [2] (setting [4]), the “Tissue (mean) (ng/g)/AUG(0-12 hr)(ng·hr/ml) Ratio” value amounted to 0, the “Tissue (mean) (ng/g)/Trough(12 hr)(ng/ml) Ratio” value is 0 and the “Trough (12 hr)” value is 0.568 ng/mL. In data set [2] (female, Yorkshire-Cross, pig, po, Trough (12 hr)), this molecule gave a concentration at 12 h of 0.568 ng/mL. For the same molecule, in data set [2], the “AUC0-12 hours in the blood” value was “higher” and the “mean concentration in the blood” value is given as “higher”.
